Consider 22 compounds from US11555012B2 (Nimbus Artemis, Inc., priority 2018, dated 2023).

Assay [1] has as its target T1, ACL (Homo sapiens (Human), UniProt P53396). The experiment in a line: ADP-Glo Assay. (In general: ADP-Glo first removes unused ATP, then detects ADP through luciferase.)
Target sequence in this assay (P53396 other isoform, or with tags, fused parts or gaps isoform P53396-2): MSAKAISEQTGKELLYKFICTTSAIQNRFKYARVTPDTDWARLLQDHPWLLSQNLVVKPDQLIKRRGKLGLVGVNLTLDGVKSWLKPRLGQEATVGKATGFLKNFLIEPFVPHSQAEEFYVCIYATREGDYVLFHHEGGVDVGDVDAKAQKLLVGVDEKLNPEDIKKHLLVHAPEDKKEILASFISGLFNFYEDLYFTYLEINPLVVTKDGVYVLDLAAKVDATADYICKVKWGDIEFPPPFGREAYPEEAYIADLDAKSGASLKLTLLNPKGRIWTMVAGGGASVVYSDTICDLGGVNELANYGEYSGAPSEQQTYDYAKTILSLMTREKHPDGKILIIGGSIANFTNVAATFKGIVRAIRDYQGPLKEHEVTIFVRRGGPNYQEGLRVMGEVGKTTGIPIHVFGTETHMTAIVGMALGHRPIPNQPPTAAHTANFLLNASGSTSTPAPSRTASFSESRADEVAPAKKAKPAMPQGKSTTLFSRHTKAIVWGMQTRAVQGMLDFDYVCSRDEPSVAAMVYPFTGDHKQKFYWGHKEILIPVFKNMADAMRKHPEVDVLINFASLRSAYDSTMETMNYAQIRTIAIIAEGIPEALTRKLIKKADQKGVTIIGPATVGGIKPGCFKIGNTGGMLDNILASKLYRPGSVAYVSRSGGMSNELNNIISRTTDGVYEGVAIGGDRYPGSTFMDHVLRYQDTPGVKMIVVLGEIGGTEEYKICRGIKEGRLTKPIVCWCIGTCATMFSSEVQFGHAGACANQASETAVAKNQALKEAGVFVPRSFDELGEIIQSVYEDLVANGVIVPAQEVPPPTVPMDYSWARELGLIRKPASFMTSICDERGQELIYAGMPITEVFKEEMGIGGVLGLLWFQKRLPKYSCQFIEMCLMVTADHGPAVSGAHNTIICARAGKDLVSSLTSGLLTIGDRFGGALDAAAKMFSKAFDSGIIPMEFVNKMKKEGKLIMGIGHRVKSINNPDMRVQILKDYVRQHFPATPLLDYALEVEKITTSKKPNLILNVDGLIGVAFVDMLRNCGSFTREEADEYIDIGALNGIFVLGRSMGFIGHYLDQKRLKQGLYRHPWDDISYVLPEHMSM
Assay [2] concerns the target T1, ACL. The assay is described as follows: ACLY-MDH Coupled Assay.
Target sequence in this assay (P53396 whole entry, species assumed): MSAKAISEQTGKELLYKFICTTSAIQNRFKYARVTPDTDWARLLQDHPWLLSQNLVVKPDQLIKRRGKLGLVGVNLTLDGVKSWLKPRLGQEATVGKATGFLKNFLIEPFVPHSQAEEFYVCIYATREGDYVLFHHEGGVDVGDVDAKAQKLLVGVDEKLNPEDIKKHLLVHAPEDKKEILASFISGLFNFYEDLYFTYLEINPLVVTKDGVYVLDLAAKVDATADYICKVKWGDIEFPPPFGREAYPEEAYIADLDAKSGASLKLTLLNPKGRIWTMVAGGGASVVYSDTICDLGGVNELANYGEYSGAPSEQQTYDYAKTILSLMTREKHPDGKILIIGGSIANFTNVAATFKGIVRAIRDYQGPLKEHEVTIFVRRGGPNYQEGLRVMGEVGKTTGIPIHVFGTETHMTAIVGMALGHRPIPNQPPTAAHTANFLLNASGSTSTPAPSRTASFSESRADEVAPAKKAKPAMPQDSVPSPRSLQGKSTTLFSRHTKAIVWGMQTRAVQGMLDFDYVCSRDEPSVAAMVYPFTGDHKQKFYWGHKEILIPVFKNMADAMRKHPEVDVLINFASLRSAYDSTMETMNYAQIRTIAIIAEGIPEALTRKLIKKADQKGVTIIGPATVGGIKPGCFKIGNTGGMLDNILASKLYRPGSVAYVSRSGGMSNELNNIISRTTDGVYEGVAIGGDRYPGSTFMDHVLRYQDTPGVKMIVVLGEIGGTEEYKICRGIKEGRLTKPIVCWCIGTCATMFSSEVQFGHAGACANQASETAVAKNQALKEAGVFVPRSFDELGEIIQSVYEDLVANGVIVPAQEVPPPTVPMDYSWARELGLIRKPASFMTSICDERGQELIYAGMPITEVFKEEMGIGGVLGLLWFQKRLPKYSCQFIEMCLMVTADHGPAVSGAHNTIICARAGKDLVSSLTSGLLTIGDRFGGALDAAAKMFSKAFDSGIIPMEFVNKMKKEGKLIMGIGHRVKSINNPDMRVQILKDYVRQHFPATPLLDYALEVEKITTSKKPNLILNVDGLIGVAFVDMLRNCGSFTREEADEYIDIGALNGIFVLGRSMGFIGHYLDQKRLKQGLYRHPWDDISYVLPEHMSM
Description: Compounds of the present invention were evaluated in an ACLY Coupled Assay.
The assay protocol for the Coupled Assay (below) was followed:
b) Add 1 μL cpds to 96 assay plate, Test cpd conc: 100/30/10 μM top dose, 3 folds dilution, 10+0+control (control: buffer without ACL+DMSO) points, 1000 rpm for 1 min, incubation at 25° C. for 60 min
[3] abbreviates: read-out: ACL-ADP-Glo (IC50), 3 nM ACL, 15 μM ATP, 3 μM CoA, 300 μM Citrate.
Where [4] appears, read: read-out: ACL-MDH Coupled Assay (IC50), 8 nM ACL, 60 μM CoA Na2, 85 μM Citrate, 250 μM ATP, 250 μM NADH.

Where only a bound is given, the exact number is not on record here.

As usually defined, the IC50 is the point on the concentration scale where inhibition reaches its midpoint.

With `O=C(c1cc(Cl)c(O)c(S(=O)(=O)Nc2cc(-c3ccccc3)c(F)cc2F)c1)N1CC[C@H](F)C1` [I-118, (S)-3-chloro-N-(4,6-difluoro-[1,1′-biphenyl]-3-yl)-5-(3-fluoropyrrolidin-1-carbonyl)-2-hydroxybenzenesulfonamide], the IC50 at ACL [1] (setting [3]) was less than 0.05 µM; at ACL [2], 0.05 to 0.5 µM.
Regarding `O=C(c1cc(Cl)c(O)c(S(=O)(=O)Nc2cc(-c3ccccc3)c(F)cc2F)c1)N1CC[C@@H](F)C1` [I-119, (R)-3-chloro-N-(4,6-difluoro-[1,1′-biphenyl]-3-yl)-5-(3-fluoropyrrolidine-1-carbonyl)-2-hydroxybenzenesulfonamide], the 50% inhibitory concentration (IC50) at ACL [1] (setting [3]) was less than 0.05 µM; against ACL [2], 0.05 to 0.5 µM.
For the compound `CS(=O)(=O)c1cc(Cl)c(O)c(S(=O)(=O)Nc2cc(-c3ccccc3)c(F)cc2F)c1` [I-124, 3-chloro-N-[4,6-difluoro-[1,1-biphenyl]-3-yl]-2-hydroxy-5-methanesulfonylbenzene-1-sulfonamide], the IC50 against ACL [1] and against ACL [2] was 0.05 to 0.5 µM in each case.
As for `O=C(c1cc(Cl)c(O)c(S(=O)(=O)Nc2cc(-c3ccccc3)c(F)cc2F)c1)N1CC(O)C1` [I-129, 3-chloro-N-(4,6-difluoro-[1,1′-biphenyl]-3-yl)-2-hydroxy-5-(3-hydroxyazetidine-1-carbonyl)benzenesulfonamide], the IC50 on ACL [1] (setting [3]) was less than 0.05 µM; against ACL [2] it was 0.05 to 0.5 µM.
Regarding `O=C(c1cc(Cl)c(O)c(S(=O)(=O)Nc2cc(-c3ccccc3)c(F)cc2F)c1)N1CC(F)C1` [I-130, 3-chloro-N-(4,6-difluoro-[1,1′-biphenyl]-3-yl)-5-(3-fluoroazetidine-1-carbonyl)-2-hydroxybenzenesulfonamide], the IC50 on ACL [1] (setting [3]) and on ACL [2] (setting [4]) was less than 0.05 µM each time.
For `COc1ccc(-c2ccccc2)cc1NS(=O)(=O)c1cc(-c2nccn2C)cc(Cl)c1O` [I-131, 3-chloro-2-hydroxy-N-[4-methoxy-[1,1-biphenyl]-3-yl]-5-(1-methyl-1H-imidazol-2-yl)benzene-1-sulfonamide], the half-maximal inhibitory concentration (IC50) on ACL [1] and against ACL [2] was 0.05 to 0.5 µM each time.
`Cn1ccnc1-c1cc(Cl)c(O)c(S(=O)(=O)Nc2cc(-c3ccccc3)ccc2O)c1` [I-133, 3-chloro-2-hydroxy-N-(4-hydroxy-[1,1′-biphenyl]-3-yl)-5-(1-methyl-1H-imidazol-2-yl)benzenesulfonamide]: the IC50 on ACL [1] was in the range of 0.05 to 0.5 µM; at ACL [2] it was 0.5 to 30 µM.
As to `CC(C)n1c(NS(=O)(=O)c2cc(Cl)cc(Cl)c2O)c(-c2ccc(F)cc2)c2ccccc21` [I-134, 3,5-dichloro-N-(3-(4-fluorophenyl)-1-isopropyl-1H-indol-2-yl)-2-hydroxybenzenesulfonamide], the results for the IC50 against ACL [1] and at ACL [2] were 0.5 to 20 µM and 0.5 to 30 µM, respectively.
Turning to `O=C(c1cc(Cl)c(O)c(S(=O)(=O)Nc2cc(C3CC3)c(F)cc2F)c1)N1CCC1` [I-137, 5-(azetidine-1-carbonyl)-3-chloro-N-(5-cyclopropyl-2,4-difluorophenyl)-2-hydroxybenzene-1-sulfonamide], the IC50 at ACL [1] and against ACL [2] was 0.05 to 0.5 µM each time.
Regarding `O=C(Nc1cc(-c2ccccc2)c(F)cc1F)c1cc(Br)cc(Cl)c1O` [I-139, 5-bromo-3-chloro-N-(4,6-difluoro-[1,1′-biphenyl]-3-yl)-2-hydroxybenzamide], the results for the half-maximal inhibitory concentration (IC50) at ACL [1] and at ACL [2] were 0.5 to 20 µM and 0.5 to 30 µM, respectively.
The corresponding values for `CO[C@@H]1CCN(C(=O)c2cc(Cl)c(O)c(S(=O)(=O)Nc3cc(-c4ccccc4)ccc3F)c2)C1` [I-141, 3-chloro-N-[4-fluoro-[1,1-biphenyl]-3-yl]-2-hydroxy-5-[(3R)-3-methoxypyrrolidine-1-carbonyl]benzene-1-sulfonamide] are 0.05 to 0.5 µM and 0.5 to 30 µM.
As to `CO[C@H]1CCN(C(=O)c2cc(Cl)c(O)c(S(=O)(=O)Nc3cc(-c4ccccc4)ccc3F)c2)C1` [I-142, 3-chloro-N-[4-fluoro-[1,1-biphenyl]-3-yl]-2-hydroxy-5-[(3S)-3-methoxypyrrolidine-1-carbonyl]benzene-1-sulfonamide], the IC50 at ACL [1] (setting [3]) and at ACL [2] (setting [4]) was less than 0.05 µM in each case.
As to `O=C(O)COc1c(Cl)cc(Cl)cc1S(=O)(=O)Nc1cc(-c2ccccc2)ccc1F` [I-143], the values for the IC50 against ACL [1] and against ACL [2] were 0.5 to 20 µM and 0.5 to 30 µM, respectively.
With `COc1ccc(-c2cccnc2)cc1NS(=O)(=O)c1cc(C(=O)N2CCC2)cc(Cl)c1O` [I-144, 5-(azetidine-1-carbonyl)-3-chloro-2-hydroxy-N-[2-methoxy-5-(pyridin-3-yl)phenyl]benzene-1-sulfonamide], the IC50 against ACL [1] fell in the range of 0.05 to 0.5 µM; against ACL [2], 0.5 to 30 µM.
With `COC(=O)c1cc(Cl)c(O)c(C(=O)Nc2cc(-c3ccccc3)c(F)cc2F)c1` [I-146, methyl 3-chloro-5-((4,6-difluoro-[1,1′-biphenyl]-3-yl)carbamoyl)-4-hydroxybenzoate], the IC50 is 0.5 to 20 µM against ACL [1] and 0.5 to 30 µM on ACL [2].
In the case of `C[C@@]1(O)CCN(C(=O)c2cc(Cl)c(O)c(S(=O)(=O)Nc3cc(-c4ccccc4)c(F)cc3F)c2)C1` [I-148, (R)-3-chloro-N-(4,6-difluoro-[1,1′-biphenyl]-3-yl)-2-hydroxy-5-(3-hydroxy-3-methylpyrrolidine-1-carbonyl)benzenesulfonamide], the IC50 on ACL [1] (setting [3]) and at ACL [2] (setting [4]) was less than 0.05 µM throughout.
`C[C@]1(O)CCN(C(=O)c2cc(Cl)c(O)c(S(=O)(=O)Nc3cc(-c4ccccc4)c(F)cc3F)c2)C1` [I-149, (S)-3-chloro-N-(4,6-difluoro-[1,1′-biphenyl]-3-yl)-2-hydroxy-5-(3-hydroxy-3-methylpyrrolidine-1-carbonyl)benzenesulfonamide]: the IC50 was less than 0.05 µM on ACL [1] (setting [3]) and 0.05 to 0.5 µM against ACL [2].
Regarding `CC(C)C(=O)Oc1c(Cl)cc(C(=O)N2CCC2)cc1S(=O)(=O)Nc1cc(-c2ccccc2)c(F)cc1F` [I-158, 4-(azetidine-1-carbonyl)-2-chloro-6-([4,6-difluoro-[1,1-biphenyl]-3-yl]sulfamoyl)phenyl 2-methylpropanoate], the IC50 at ACL [1] and at ACL [2] was 0.05 to 0.5 µM throughout.
On to `O=C(c1cc(Cl)c(O)c(S(=O)(=O)Nc2cc(-c3ccccc3)cc(F)c2F)c1)N1CCCC1` [I-159, 3-chloro-N-[4,5-difluoro-[1,1-biphenyl]-3-yl]-2-hydroxy-5-(pyrrolidine-1-carbonyl)benzene-1-sulfonamide], for which the IC50 on ACL [1] (setting [3]) and on ACL [2] (setting [4]) was less than 0.05 µM in each case.
For `O=C(c1cc(Cl)c(O)c(S(=O)(=O)Nc2cc(-c3ccccc3)cc(F)c2F)c1)N1CCC1` [I-160, 5-(azetidine-1-carbonyl)-3-chloro-N-[4,5-difluoro-[1,1-biphenyl]-3-yl]-2-hydroxybenzene-1-sulfonamide], the IC50 on ACL [1] (setting [3]) and at ACL [2] (setting [4]) was less than 0.05 µM throughout.
As to `CC(=O)NC1CN(C(=O)c2cc(Cl)c(O)c(S(=O)(=O)Nc3cc(-c4ccccc4)c(F)cc3F)c2)C1` [I-162, N-[1-[3-chloro-5-([4,6-difluoro-[1,1-biphenyl]-3-yl]sulfamoyl)-4-hydroxybenzoyl]azetidin-3-yl]acetamide], the IC50 lay in the range of 0.05 to 0.5 µM on ACL [1] and 0.5 to 30 µM on ACL [2].
The corresponding values for `O=C(O)COc1c(Br)cc(C(=O)N2CCC2)cc1S(=O)(=O)Nc1cc(-c2ccccc2)ccc1F` [I-192, 2-(4-(azetidine-1-carbonyl)-2-bromo-6-(N-(4-fluoro-[1,1′-biphenyl]-3-yl)sulfamoyl)phenoxy)acetic Acid] are 0.5 to 20 µM and 0.5 to 30 µM.
